Experimental data reported in paper PMC8710297, “Identification of potent SENP1 inhibitors that inactivate SENP1/JAK2/STAT signaling pathway and overcome platinum drug resistance in ovarian cancer” (Clinical and Translational Medicine, 2021).
≈ marks a conversion by molar mass, not a printed value.

Test: Water solubility determination (HPLC)
Type: physicochemical
Conditions: thermodynamic from solid, ultra-pure water, room temperature
Method: at room tem p eratu re fo r 2 h. After centrifu gation at 3000×g fo r 10 min, the supernatant wa s transferred into a sample vial and dried with Sp ee d vac (Fish er Scientific). So lu ti on s fo r standards were prepared by using a series of different concentrations of ursolic acid (i.e., 0.1, 0.5, 1.0, 2. 0, 5.0 ug /mL in methanol ). Ea c h sample was in jec ted fo r analysis by liq uid chromatography‐tan dem mass spectrometry (UPLC‐MS/MS) with multip le react io n monitor ing (MRM) mode. (2) UPLC‐MS/MS analysis Sa m ples were analyzed wi t h Acquity UPLC syste m (Waters) cou ple d wi t h a Q‐TRAP 6500 mass spectrometer (Sciex). Spe cifically, 5 μL of each sample wa s loaded onto a C18 column (Waters Acquity UPLC BEH C18 1.7μm, 2.1mm x 50 mm). […]
Mass spectra were recorded with Analyst TF 1.6.2 software in th e MRM mode (Q1 mass: 455 Da, Q3 mass:455.1 Da , Time:100 ms, CE: ‐20, DP: ‐50: EP:‐ 7, CXP: ‐12). (3) Data analysis: Data files we re analyzed with quantitated with the “Quantitation Method” in th e An al yst software […]
slid e at a flow ra te of 25 μL/ min wi th 110 s contac t time and 250 s dissociation time. Th e background re s p o ns e was recorded using th e refere nce flow channel, and the background data wa s subtracted from the data fro m each injection sample. […]

For `C[C@H]1[C@H](C)CC[C@]2(C(=O)NCC(=O)N(C)CCO)CC[C@]3(C)C(=CC[C@@H]4[C@@]5(C)CC[C@H](O)C(C)(C)[C@@H]5CC[C@]43C)[C@H]12` [UAMMC9], the solubility at 24 h was 39.7 µg/mL (≈ 69.5 µM).
